Entries after “also recorded” stand apart in the source; their conditions may differ. Like-named read-outs stand apart in the source and are kept apart here.
How the values were obtained:
[1] = test system: CD8+ T cells of HLA-B*07:02 subjects; type: cell-based, human
[2] = test system: CD8+ T cells of convalescent COVID-19 individuals; conditions: ref Tarke et al., 2020; cited from earlier work
[3] = biological target: HLA-A*02:01 (Homo sapiens, UniProt P04439, D140Y/D185E/D98H/E176V/E277Q/G131W/G231S/I119V/I121R/I166T/I218V/L300P/L318F/N151K/N90K/P208A/P217A/Q86G/Q94H/R138H/R169H/T345S); type: binding
[4] = biological target: HLA-A*26:01 (Homo sapiens, UniProt P04439, A114D/A173T/A270S/D101N/D185E/E277Q/E87N/F33Y/G231S/I121R/I218V/K168Q/L180W/L300P/L318F/P208A/P217A/Q86R/Q94H/R138Q/S129P/T187R/T323A/T345S/V100A/V358M); type: binding
[5] = test system: CD8+ T cells of HLA-A*02:01 subjects; type: cell-based, human

RPPIFIRRL
CD8+ T cell response (in words) [1]: positive reactivity

QLTPTWRVY
T cell responses in convalescent COVID-19 individuals expressing the predicted alleles [2]: elicit T cell responses

ELPDEFVVVTV
binding to A*02:01 (in words) [3]: binds | binding to A*26:01 (in words) [4]: binds | CD8+ T cell response (in words) ([5]; nine HLA-A*02:01 samples (seven COVID-19 convalescent and two unexposed)): top five reactive peptides; also recorded: strongest CD8+ response among all tested HLA-I peptides

KLWAQCVQL [reference compound]
CD8+ T cell response (in words) [5]: weak responses
